Patent US8163737B2 (Vertex Pharmaceuticals Incorporated, priority 2006, dated 2012)

Experiments:
[1] = biological target: endogenous CGRP receptor (Homo sapiens, UniProt O60894+Q16602); assay: CGRP functional antagonism using SK-N-MC-BLA (4C10), β-lactamase transcriptional reporter assay; format: cell-based; details: SK-N-MC (4C10) cells, inhibition of β-lactamase expression in the presence of 200 pM CGRP
[2] = biological target: T1, CGRP receptor (SK-N-MC membrane) (Homo sapiens, UniProt O60894+Q16602); assay: I125-CGRP binding displacement assay on purified SK-N-MC membrane
T1 construct: Purified SK-N-MC membrane was purchased from Perkin Elmer; purchased Perkin Elmer; host or cells: SK-N-MC membrane
T1 sequence (Q16602 23-461): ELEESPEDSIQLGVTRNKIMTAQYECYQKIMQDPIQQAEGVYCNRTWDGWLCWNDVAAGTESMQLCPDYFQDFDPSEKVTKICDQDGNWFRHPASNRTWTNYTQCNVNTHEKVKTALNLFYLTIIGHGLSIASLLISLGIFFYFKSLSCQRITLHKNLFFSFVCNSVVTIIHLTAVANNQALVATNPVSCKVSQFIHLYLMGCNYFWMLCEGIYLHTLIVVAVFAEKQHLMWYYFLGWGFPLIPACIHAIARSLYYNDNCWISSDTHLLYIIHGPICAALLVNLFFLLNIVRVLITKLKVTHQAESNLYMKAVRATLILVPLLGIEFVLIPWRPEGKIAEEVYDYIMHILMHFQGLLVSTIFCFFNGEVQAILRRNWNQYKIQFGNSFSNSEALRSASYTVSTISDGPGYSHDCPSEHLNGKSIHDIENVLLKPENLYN
T1 sequence (O60894 27-148): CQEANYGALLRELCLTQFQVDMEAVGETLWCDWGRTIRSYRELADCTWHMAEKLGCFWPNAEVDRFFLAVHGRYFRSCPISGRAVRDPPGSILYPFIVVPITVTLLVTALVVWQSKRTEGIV
Procedure: Purified SK-N-MC membrane was purchased from Perkin Elmer. The membrane was thawed quickly and placed on ice. The compounds were diluted with CGRP binding solution (25 mM Tris-HCl, pH7.4, 5 mM MgCl2, 0.1% BSA and 0.05% Tween). The membrane was diluted 1:20 with the binding solution and homogenized with Tissue Matster-50 Homogenizer (Omni International) for 30 sec. The homogenized membrane was added to compounds in the binding solution. […] After 2 hour incubation at room temperature, the reaction was stopped by rapid filtration through 0.5% PEI treated GF/C filter plate (Perkin Elmer) and the filter plate was washed with ice-cold washing solution (50 mM Tris HCl, pH7.4, 5 mM MgCl2 and 0.1% BSA) using cell harvestor (Tomtec). The radioactivity of the filter plates were read on Topcount (Packard). The nonspecific binding was determined in the control reaction where 1 uM unlabelled CGRP was preincubated with the membrane prior to I125-CGRP addition. The total binding was determined in the control reaction of the membrane and I125-CGRP in the absence of compound. The percent displacement of I125-CGRP with compounds was calculated using nonspecific and total binding controls. The curve fitting was carried out using MOD3.

endogenous CGRP receptor, sequence (Q16602 23-461): as the sequence (Q16602 23-461) above
endogenous CGRP receptor, sequence (O60894 27-148): as the sequence (O60894 27-148) above

IC50 [1] [µM]	Ki [2] [µM]	Structure (SMILES)
< 1	< 1	CC(C)(C)CCN1C(=O)[C@H](CC(=O)N2CCC(N3CCc4ccccc4NC3=O)CC2)SC1c1cc(F)cc(F)c1N1CCN(C(C)(C)C)CC1 (stereo partly drawn) [Compound 478, (5S)-2-(2-(4-tert-Butylpiperazin-1-yl)-3,5-difluorophenyl)-3-(3,3-dimethylbutyl)-5-(2-oxo-2-(4-(2-oxo-4,5-dihydro-1H-benzo[d][1,3]diazepin-3(2H)-yl)piperidin-1-yl)ethyl)thiazolidin-4-one]
< 1	< 1	COCCN1C(=O)[C@H](CC(=O)N2CCC(N3CCc4ccccc4NC3=O)CC2)SC1c1cccc(F)c1N1CCN(C(C)(C)C)CC1 (stereo partly drawn) [Compound 534]
1 to 5	< 1	O=C(CC1SC(c2ccccc2)N(CCc2ccccn2)C1=O)N1CCC(N2Cc3ccccc3NC2=O)CC1 (stereo not drawn) [Compound 128]
< 1	< 1	CC(C)CCN1C(=O)C(CC(=O)N2CCC(N3CCc4ccccc4NC3=O)CC2)SC1c1ccc(F)cc1Cl (stereo not drawn) [Compound 79]
< 1	> 5	CC(C)CCN1C(=O)C(CC(=O)N2CCC(n3cc(-c4ccccc4)[nH]c3=O)CC2)SC1c1ccc(F)cc1F (stereo not drawn) [Compound 237]
< 1	< 1	CC(C)(C)CCN1C(=O)[C@H](CC(=O)N2CCC(n3c(=O)[nH]c4ncccc43)CC2)S[C@H]1c1cccc(F)c1N1CCC(O)C1 (stereo partly drawn) [Compound 462]
< 1	< 1	CC(C)CCN1C(=O)C(CC(=O)N2CCC(n3c(=O)[nH]c4ccccc43)CC2)SC1c1ccccc1-n1ccnc1 (stereo not drawn) [Compound 289]
< 1	< 1	O=C(CC1SC(c2c(F)cccc2F)N(CC2CCCCC2)C1=O)N1CCC(N2CCc3ccccc3NC2=O)CC1 (stereo not drawn) [Compound 16]
< 1	< 1	CC(C)(C)CCN1C(=O)[C@H](CC(=O)N2CCC(N3CCc4ccccc4NC3=O)CC2)SC1c1ccccc1N1CCNCC1=O (stereo partly drawn) [Compound 512]
< 1	< 1	O=C(CC1SC(c2ccccc2)N(C2CCCCC2)C1=O)N1CCC(N2Cc3ccccc3NC2=O)CC1 (stereo not drawn) [Compound 1]
< 1	< 1	CN(C)[C@H]1CCN(c2ccccc2C2SC(CC(=O)N3CCC(N4CCc5ccccc5NC4=O)CC3)C(=O)N2CCC(C)(C)C)C1 (stereo partly drawn) [Compound 407]
< 1	< 1	CC(C)N1CCN(c2c(F)cccc2[C@H]2S[C@@](C)(CC(=O)N3CCC(n4c(=O)[nH]c5ncccc54)CC3)C(=O)N2CCC(C)(C)C)CC1 [Compound 446]
1 to 5	< 1	CC(C)(C)CCN1C(=O)[C@H](CC(=O)N2CCC(N3CCc4ccccc4NC3=O)CC2)SC1c1cccc(F)c1N1CCC(F)C1 (stereo partly drawn) [Compound 481]
< 1	< 1	CC(C)CCN1C(=O)C(CC(=O)N2CCC(N3Cc4ccccc4NC3=O)CC2)SC12CCSCC2 (stereo not drawn) [Compound 174]
< 1	< 1	Cc1cc(C2SC(CC(=O)N3CCC(N4CCc5ccccc5NC4=O)CC3)C(=O)N2CC2CCCCC2)cc2cn[nH]c12 (stereo not drawn) [Compound 20]
< 1	< 1	O=C(CC1SC(c2ccccc2)N(Cc2cccnc2)C1=O)N1CCC(N2Cc3ccccc3NC2=O)CC1 (stereo not drawn) [Compound 278]
	< 1	CN(C)[C@H]1CCN(c2ccccc2C2SC(CC(=O)N3CCC(n4c(=O)[nH]c5ncccc54)CC3)C(=O)N2CCC(C)(C)C)C1 (stereo partly drawn) [Compound 406]
	< 1	CC(C)(C)CCN1C(=O)[C@H](CC(=O)N2CCC(N3CCc4ccccc4NC3=O)CC2)SC1c1cccc(F)c1C1CCN(C2CCC2)CC1 (stereo partly drawn) [Compound 558]
> 5		CC(C)CCN1C(=O)C(CC(=O)N2CCC(N3Cc4ccccc4NC3=O)CC2)SC12CCC2 (stereo not drawn) [Compound 275]

Continued, molecule first:

Structure (SMILES)	IC50 [1] [µM]	Ki [2] [µM]
CN(C)c1ccccc1C1SC(CC(=O)N2CCC(N3Cc4ccccc4NC3=O)CC2)C(=O)N1CCC(C)(C)C (stereo not drawn) [Compound 198]	< 1	< 1
CN1CCN(c2c(F)cccc2C2SC(CC(=O)N3CCC(N4CCc5ccccc5NC4=O)CC3)C(=O)N2CCC(C)(C)C)CC1 (stereo not drawn) [Compound 324]	< 1	< 1
CC(C)(C)CCN1C(=O)[C@H](CC(=O)N2CCC(N3CC(=O)NC3=O)CC2)S[C@H]1c1cccc(F)c1N1CCN(C(C)(C)C)CC1 [Compound 447]	< 1	< 1
CC(C)CCN1C(=O)C(CC(=O)N2CCC(n3cc(-c4ccccc4)[nH]c3=O)CC2)SC12CCCCC2 (stereo not drawn) [Compound 195]	1 to 5	> 5
CN(C)C1CCN(c2c(F)cccc2[C@@H]2S[C@@H](CC(=O)N3CCC(n4c(=O)[nH]c5ncccc54)CC3)C(=O)N2CCC(C)(C)C)C1 (stereo partly drawn) [Compound 456]	1 to 5	< 1
O=C(CC1SC(c2ccccc2)N(CC(F)(F)F)C1=O)N1CCC(N2Cc3ccccc3NC2=O)CC1 (stereo not drawn) [Compound 109]	1 to 5	< 1
COc1ccccc1C1SC(CC(=O)N2CCC(n3cc(-c4ccccc4)[nH]c3=O)CC2)C(=O)N1CCC(C)C (stereo not drawn) [Compound 64]	1 to 5	< 1
CC(C)CCN1C(=O)C(CC(=O)N2CCC(n3cc(-c4ccccc4)[nH]c3=O)CC2)SC1c1ccc(F)c(F)c1 (stereo not drawn) [Compound 127]	1 to 5	> 5
CC(C)(C)CCN1C(=O)[C@H](CC(=O)N2CCC(n3c(=O)[nH]c4ncccc43)CC2)SC1c1cccc(F)c1N1CCC(F)(F)C1 (stereo partly drawn) [Compound 482]	1 to 5	< 1
CN1CCN(c2cccc(F)c2C2SC(CC(=O)N3CCC(n4c(=O)[nH]c5ccccc54)CC3)C(=O)N2CCC(C)(C)C)CC1 (stereo not drawn) [Compound 348]	1 to 5	> 5
CC(C)N1CCN(c2cccc(Cl)c2[C@H]2S[C@H](CC(=O)N3CCC(N4CCc5ccccc5NC4=O)CC3)C(=O)N2CCC(C)(C)C)CC1 [Compound 434]	< 1	< 1
CC(C)(C)N1CCN(c2c(F)cccc2C2S[C@@H](CC(=O)N3CCC(n4c(=O)[nH]c5ncccc54)CC3)C(=O)N2CCc2ccc(F)cc2)CC1 (stereo partly drawn) [Compound 505]	< 1	< 1
Cc1cccc(C2SC(CC(=O)N3CCC(N4Cc5ccccc5NC4=O)CC3)C(=O)N2CCC(C)C)c1 (stereo not drawn) [Compound 41]	< 1	< 1
CC(C)(C)CCN1C(=O)[C@H](CC(=O)N2CCC(N3CCc4ccccc4NC3=O)CC2)S[C@@H]1c1ccccc1C1CCNCC1 [Compound 501, 4,5-Dihydro-3-(1-(2-((2R,5S)-3-(3,3-dimethylbutyl)-4-oxo-2-(2-(piperidin-4-yl)phenyl)thiazolidin-5-yl)acetyl)piperidin-4-yl)-1H-benzo[d][1,3]diazepin-2(3H)-one]	< 1	< 1
CC(C)(C)N1CCN(c2c(F)cccc2[C@@H]2S[C@@H](CC(=O)N3CCC(N4CCc5ccccc5NC4=O)CC3)C(=O)N2CC2CCOCC2)CC1 [Compound 524]	< 1	< 1
CN1CCN(c2ccccc2[C@@H]2SC(CC(=O)N3CCCCC3)C(=O)N2CCC(C)(C)C)CC1 (stereo partly drawn) [Compound 105]	> 5	> 5
CC(C)(C)CCN1C(=O)[C@H](CC(=O)N2CCC(N3CCc4ccccc4NC3=O)CC2)SC1c1cccc(F)c1N1CCC(c2ccncc2)CC1 (stereo partly drawn) [Compound 557]		< 1
CC(C)CCN1C(=O)C(CC(=O)N2CCC(n3c(=O)[nH]c4ccccc43)CC2)S[C@H]1c1ccccc1N1CCC(O)CC1 (stereo partly drawn) [Compound 304]		< 1
